Measured values as given in PubChem BioAssay AID328 (DTP/NCI, 2004).
Where “and” joins values, the source holds several entries; their conditions need not be identical. Equal values may be shown once. Inconclusive results and toxic doses are left out. Rule for the calls: active = survival T/C of 150% or more; inactive = T/C below 125% in these data.

Test system: BDF1 mice, P388 leukemia ip, median survival T/C
Assay: NCI In Vivo Anticancer Drug Screen. Data for tumor model P388 Leukemia (intraperitoneal) in B6D2F1 (BDF1) mice
Settings: endpoint: median survival time, higher = longer survival
Procedure, shortened: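 T/C = treated-group survival ÷ vehicle-control survival; tumour transplanted into mice before dosing.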

[1] = dose: 100.0 mg/kg/injection, schedule: Q01DX001 (ip), vehicle: saline with Tween-80
[2] = dose: 200.0 mg/kg/injection, schedule: Q01DX001 (ip), vehicle: saline with Tween-80
[3] = dose: 400.0 mg/kg/injection, schedule: Q01DX001 (ip), vehicle: saline with Tween-80
[4] = dose: 100.0 mg/kg/injection, schedule: Q04DX003 (ip), vehicle: saline
[5] = dose: 200.0 mg/kg/injection, schedule: Q04DX003 (ip), vehicle: saline
[6] = dose: 50.0 mg/kg/injection, schedule: Q01DX009 (ip), vehicle: saline with Tween-80
[7] = dose: 100.0 mg/kg/injection, schedule: Q01DX009 (ip), vehicle: saline with Tween-80
[8] = dose: 200.0 mg/kg/injection, schedule: Q01DX009 (ip), vehicle: saline with Tween-80
[9] = dose: 400.0 mg/kg/injection, schedule: Q04DX003 (ip), vehicle: saline
[10] = dose: 100.0 mg/kg/injection, schedule: Q04DX003 (ip), vehicle: saline with Tween-80

Measured: T/C

CC(=O)CC(C)=O.CC(=O)CC(C)=O.Cn1ccnc1.Cn1ccnc1.[Ni]
inactive: dose: 12.5 mg/kg/injection, schedule: Q04DX002 (ip), vehicle: saline 103 % of control | dose: 25.0 mg/kg/injection, schedule: Q04DX002 (ip), vehicle: saline 107 % of control | dose: 50.0 mg/kg/injection, schedule: Q04DX002 (ip), vehicle: saline 119 % of control

CN(C)C=C1C(=O)N(C)C(=O)N(C)C1=O
inactive: dose: 100.0 mg/kg/injection, schedule: Q04DX002 (ip), vehicle: saline 101 % of control | dose: 200.0 mg/kg/injection, schedule: Q04DX002 (ip), vehicle: saline 108 % of control | dose: 400.0 mg/kg/injection, schedule: Q04DX002 (ip), vehicle: saline 112 % of control

O=C(Nc1ccccc1)c1ccc(C(F)(F)F)cc1O
inactive: dose: 16.5 mg/kg/injection, schedule: Q01DX009 (ip), vehicle: saline 99 % of control | dose: 25.0 mg/kg/injection, schedule: Q01DX009 (ip), vehicle: saline 93 % of control | dose: 35.0 mg/kg/injection, schedule: Q01DX009 (ip), vehicle: saline 112 % of control | dose: 100.0 mg/kg/injection, schedule: Q01DX009 (ip), vehicle: saline 108 % of control | dose: 200.0 mg/kg/injection, schedule: Q01DX009 (ip), vehicle: saline 95 % of control

CN1C(=O)N(C)C(=O)C(C)(C2(C)C(=O)N(C)C(=O)N(C)C2=O)C1=O
inactive: [1] 100 % of control | [2] 99 % of control | [3] 90 % of control

CN(C)C(CCc1ccccc1)C(=O)O (stereo not given)
inactive: [4] 100 % of control | [5] 104 % of control

O=C1OI(OI2OC(=O)c3ccccc32)c2ccccc21 (tested in a mixture with another compound)
inactive: dose: 50.0 mg/kg/injection, schedule: Q01DX001 (ip), vehicle: saline with Tween-80 101 % of control | [1] 101 % of control and 103 % of control | [2] 108 % of control and 120 % of control | [3] 117 % of control and 124 % of control

OCC1CSC(c2ccccc2)N1 (stereo not given)
inactive: [6] 86 % of control | [7] 115 % of control | [8] 103 % of control

COc1ccc2c(c1O)-c1c(OC)c(OC)cc3c1C(C2)N(C)CC3 (stereo not given)
inactive: dose: 5.0 mg/kg/injection, schedule: Q01DX010 (ip), vehicle: saline 100 % of control | dose: 10.0 mg/kg/injection, schedule: Q01DX010 (ip), vehicle: saline 95 % of control | dose: 20.0 mg/kg/injection, schedule: Q01DX010 (ip), vehicle: saline 100 % of control | dose: 40.0 mg/kg/injection, schedule: Q01DX010 (ip), vehicle: saline 100 % of control

Cc1ccc2c(c1)C(=O)CC=C(C(=O)O)N2
inactive: [4] 100 % of control | [8] 87 % of control | [5] 110 % of control | [9] 105 % of control

Cc1c(-c2ccccc2)cc(O)cc1-c1ccccc1
inactive: dose: 12.5 mg/kg/injection, schedule: Q04DX003 (ip), vehicle: saline 101 % of control | dose: 25.0 mg/kg/injection, schedule: Q04DX003 (ip), vehicle: saline 97 % of control and 114 % of control | dose: 50.0 mg/kg/injection, schedule: Q04DX003 (ip), vehicle: saline 102 % of control (2×) and 112 % of control | [4] 88 % of control and 109 % of control | dose: 150.0 mg/kg/injection, schedule: Q04DX003 (ip), vehicle: saline 93 % of control | [5] 93 % of control and 101 % of control and 102 % of control

COC(=O)N1C=Cc2ccccc2C1C#N (stereo not given)
inactive: dose: 25.0 mg/kg/injection, schedule: Q01DX001 (ip), vehicle: other 104 % of control | dose: 25.0 mg/kg/injection, schedule: Q01DX009 (ip), vehicle: saline with Tween-80 105 % of control | dose: 25.0 mg/kg/injection, schedule: Q04DX003 (ip), vehicle: saline with Tween-80 100 % of control | dose: 50.0 mg/kg/injection, schedule: Q01DX001 (ip), vehicle: other 90 % of control | [6] 110 % of control | dose: 50.0 mg/kg/injection, schedule: Q04DX003 (ip), vehicle: saline with Tween-80 104 % of control | dose: 100.0 mg/kg/injection, schedule: Q01DX001 (ip), vehicle: other 86 % of control | [7] 110 % of control | [10] 100 % of control

COc1cccc(/C=C/C(=O)O)c1OC
inactive: dose: 25.0 mg/kg/injection, schedule: Q04DX003 (ip), vehicle: water 106 % of control | dose: 50.0 mg/kg/injection, schedule: Q04DX003 (ip), vehicle: water 103 % of control | dose: 100.0 mg/kg/injection, schedule: Q04DX003 (ip), vehicle: water 112 % of control | dose: 200.0 mg/kg/injection, schedule: Q04DX003 (ip), vehicle: water 106 % of control | dose: 400.0 mg/kg/injection, schedule: Q04DX003 (ip), vehicle: water 97 % of control

CC1(C)c2ccccc2C(C)(C(Cl)(Cl)Cl)c2ccc(Cl)cc21 (stereo not given)
inactive: [6] 96 % of control | [7] 99 % of control | [8] 92 % of control | dose: 400.0 mg/kg/injection, schedule: Q01DX009 (ip), vehicle: saline with Tween-80 97 % of control

Cc1ccc(Nc2nc(N)nc(N)c2N)cc1Cl
inactive: dose: 33.0 mg/kg/injection, schedule: Q01DX009 (ip), vehicle: saline with Tween-80 120 % of control

O=N[O-].O=N[O-].[Co].[NH-]CC[N-]CCO.[NH-]CC[N-]CCO
inactive: dose: 12.5 mg/kg/injection, schedule: Q01DX009 (ip), vehicle: water 102 % of control and 115 % of control | dose: 40.0 mg/kg/injection, schedule: Q01DX009 (ip), vehicle: water 118 % of control | dose: 50.0 mg/kg/injection, schedule: Q01DX009 (ip), vehicle: water 100 % of control and 111 % of control | dose: 100.0 mg/kg/injection, schedule: Q01DX009 (ip), vehicle: water 101 % of control

Cc1ccn(C(=O)CC#N)n1
inactive: dose: 75.0 mg/kg/injection, schedule: Q01DX009 (ip), vehicle: saline with Tween-80 91 % of control | dose: 150.0 mg/kg/injection, schedule: Q01DX009 (ip), vehicle: saline with Tween-80 97 % of control | dose: 300.0 mg/kg/injection, schedule: Q01DX009 (ip), vehicle: saline with Tween-80 92 % of control

Cc1cccc(CSc2nc(N)nc3c2ncn3C2CC(O)C(CO)O2)n1 (stereo not given)
inactive: [4] 92 % of control | [5] 98 % of control | [9] 104 % of control

O=C(Nc1ccccc1C(=O)O)c1cc([N+](=O)[O-])cc([N+](=O)[O-])c1
inactive: [6] 117 % of control

CC(=O)[C@H]1CC[C@H]2[C@@H]3CCC4=CC(=O)[C@H](C)C[C@]4(C)[C@@]3(F)C(=O)C[C@]12C
inactive: [7] 95 % of control | [10] 120 % of control | [8] 90 % of control | dose: 200.0 mg/kg/injection, schedule: Q04DX003 (ip), vehicle: saline with Tween-80 110 % of control | dose: 400.0 mg/kg/injection, schedule: Q04DX003 (ip), vehicle: saline with Tween-80 100 % of control

COC(=O)CCC(=O)Nc1ccc(C(=O)CBr)cc1
inactive: dose: 25.0 mg/kg/injection, schedule: Q04DX003 (ip), vehicle: Klucel (hydroxypropylcellulose) (HPC) 107 % of control | dose: 50.0 mg/kg/injection, schedule: Q04DX003 (ip), vehicle: Klucel (hydroxypropylcellulose) (HPC) 97 % of control

CC(CN(C)C)C(=O)/C=C/c1ccccc1 (stereo not given)
inactive: dose: 18.75 mg/kg/injection, schedule: Q01DX009 (ip), vehicle: saline 100 % of control | dose: 37.5 mg/kg/injection, schedule: Q01DX009 (ip), vehicle: saline 109 % of control | dose: 75.0 mg/kg/injection, schedule: Q01DX009 (ip), vehicle: saline 109 % of control

c1ccc(SCC2c3ccccc3Nc3ccccc32)cc1
inactive: [1] 109 % of control | [2] 114 % of control | [3] 109 % of control
